Laboratory results: PubChem BioAssay AID179 (DTP/NCI, 2004)
The source made the active and inactive calls.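 How the source made its calls: active means compounds giving half or more protection of infected cells from virus-caused growth loss, again on retest; inactive means the rest.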 Where a SMILES comes first, the peptide text is derived from it.

Tested on: CEM cells HIV-1 protection, formazan growth assay
Experiment: NCI AIDS Antiviral Assay
Details: for IC50: measured here: growth of uninfected CEM cells
In short: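 Category rules: moderately active means at least 50% protection on retest, and confirmed active means 100% protection reproducibly. The underlying data came from a formazan growth assay in HIV-1-infected CEM cells.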

SMILES | EC50 [µM] | IC50 [µM] | outcome
CCCCOC(=Nc1ccccc1)N(c1ccccc1)c1ccccc1 | > 200 | 36.3 | –
CCCCCCCCCCOCC(COCCOCC(COCCCCCCCCCC)OCCCS(=O)(=O)O)OCCCS(=O)(=O)O (configuration not stated) | > 204 | 107 | –
COC(=O)c1ccccc1C1=C(O)C(=O)C(c2ccccc2C(=O)OC)=C(O)C1=O | > 63.1 | 6.76 | –
CCN(Cc1cccc(S(=O)(=O)[O-])c1)c1ccc(C(=C2C=CC(=[N+](CC)Cc3cccc(S(=O)(=O)O)c3)C=C2)c2ccccc2)cc1 | 148 | 186 | –
Cc1ccc(Nc2nc(=O)[nH]c(=O)[nH]2)cc1N | > 200 | > 200 | –
CC1(C)CCCC2(C)C3=C(CCC12)C(=O)OC3 (configuration not stated) | > 30.9 | > 30.9 | –
O=[N+]([O-])c1cccc(C2N3CCCCC3[C@@H]3c4[nH]c5ccccc5c4CCN23)c1 (some centres not stated) | > 18.6 | > 18.6 | –
COc1ccc2c(c1)OC[C@@H]1c3cc(OC)c(OCc4ccccc4)cc3O[C@H]21 | 6.61 | > 100 | –
N=c1nc(N)n2c(N)nc(=N)n12 | > 155 | > 155 | –
Cc1ccc(NC2=N/C(=C/c3ccco3)C(Cl)=N2)cc1 | > 200 | 158 | –
CC(=O)N1CN2C(=O)CCC2c2cc(C)ccc21 (configuration not stated) | – | – | inactive
CCOC(=O)C(=O)Nc1nc2ccc(OC)cc2s1 | > 447 | > 447 | –
O=C(O)c1c(CC(Cc2ccc3c(c2)CCC3)C(=O)O)ccc2c1CCC2 (configuration not stated) | > 200 | 145 | –
COC(=O)c1nc(-c2ccc(Cl)c(Cl)c2)nc2ccccc12 | – | – | inactive
Cc1cc(N(CCC#N)CCC#N)ccc1/C=C1N=C(/C=C\c2ccccc2)N(c2ccc(Cl)cc2)C\1=O | – | – | inactive
OCC1O[C@H](O[C@@H]2CCCN3CC(O)C(O)[C@@H]23)C(O)C(O)C1O (some centres not stated) | > 1580 | > 1580 | –
c1ccc2nc3c(nc2c1)sc1nc2ccccc2n13 | > 200 | > 200 | –
Cc1cc(=O)[nH]c(NNC(C#N)c2cccc([N+](=O)[O-])c2)n1 (configuration not stated) | > 45.7 | > 45.7 | –
O=Cc1cc2c(cc1-c1c(C=O)ccc3c1OCO3)OCO2 | > 63.1 | 33.1 | –
O=C1NCCN1/N=C/c1ccc([N+](=O)[O-])o1 | > 200 | 120 | –
CC1=Nc2cc(C(=O)c3ccccc3)ccc2N=C(c2c(O)c3ccc4ccccc4c3oc2=O)C1 | > 20 | > 20 | –

SMILES | EC50 [µM] | IC50 [µM] | outcome
O=S(=O)(O)CCCNC(CO)(CO)CO | > 200 | > 200 | –
CC(=O)NC(CS)C(=O)NC(CO)C(=O)NC(CO)C(=O)NC(Cc1c[nH]c2ccccc12)C(=O)N1CCCC1C(=O)NC(CO)C(=O)NC(Cc1c[nH]c2ccccc12)C(=O)NC(Cc1c[nH]cn1)C(=O)NC(CO)C(=O)NC(Cc1c[nH]c2ccccc12)C(=O)NCC(=O)NCC(=O)NC(C)C(=O)NC(CCC(N)=O)C(=O)NC(CCCCN)C(=O)NC(C)C(=O)NC(CCCNC(=N)N)C(=O)NC(CCCCN)C(N)=O (configuration not stated) (Ac-CSSWPSWHSWGGAQKARK-NH2; configuration not given here) | > 20 | 17.4 | –
CO[C@H](/C(C)=C/C=C/C(C)=C/c1coc(C)n1)[C@H](C)[C@H]1C[C@@H](O)[C@@]2(C)O[C@H]2/C=C/[C@@H](C)[C@@H]2C[C@@H](CC(=O)O2)C[C@H]2O[C@@H]2C(=O)O1 | > 0.219 | 0.00017 | –
CC(C)(C)C(=O)OCOP(=O)(OCOC(=O)C(C)(C)C)OCC1OC(n2cc(F)c(=O)[nH]c2=O)CC1O (configuration not stated) | > 151 | 2.09 | –
N#CCCC1(CCC#N)CCCCCCCCC(CCC#N)(CCC#N)C(=O)C1=O | > 200 | > 200 | –
CCOC(=O)c1c(-c2ccccc2)oc(=O)c(Cc2cccc3cccnc23)c1-c1ccccc1 | > 200 | > 200 | –
O=CN1CCN(C=O)C(O)C1O (configuration not stated) | > 200 | > 200 | –
CCOC(=O)c1nc2c3c(ncn2n1)Oc1c(c(-c2ccccc2)nn1-c1ccccc1)C3c1ccc(Cl)cc1 (configuration not stated) | > 200 | > 200 | –
O=c1nc2sc3ccccc3c(=O)n2[nH]1 | > 204 | 77.6 | –
Cc1cc(C2(c3cc(C)c(O)c(CN(CC(=O)O)CC(=O)O)c3)OS(=O)(=O)c3ccccc32)cc(CN(CC(=O)O)CC(=O)O)c1O | 93.3 | > 100 | –
NC12CC3CC(CC(C3)C1)C2 | > 200 | > 200 | inactive
C=CCN1C(=O)C(=O)N(CC=C)C(=O)C1=O | – | – | inactive
C[N+]12CCCCC1C(COc1cccc3cccnc13)CCC2 (configuration not stated) | > 200 | 117 | –
COc1cc(O)c(/C=N/N=C(\N)NO)c(OC)c1 | > 200 | 44.7 | –
N#C/C=C\c1cccc(C#N)c1 | > 46.8 | > 46.8 | –
CCC12CCCN3CCC4(C(=Nc5cc(OC)ccc54)CC1)C32 (configuration not stated) | – | – | inactive
Cc1cccc(-c2nc3ccc([N+](=O)[O-])cc3c(=O)o2)c1 | > 200 | 30.9 | –
CC1=NN2C(=N)/C(=C/c3ccco3)C(=O)N=C2S1 | > 200 | > 200 | –
Cc1ccc2[nH]c3c(c(=O)n(C)c(=O)n3C)c2c1 | > 200 | > 200 | –
O=C(Nc1cccc(O)c1)C(=O)C(C(=O)c1ccc(Cl)c(Cl)c1)C1OC(=O)c2ccccc21 (configuration not stated) | > 141 | 64.6 | –
Cc1cc2c(=O)cc(-c3ccncc3)oc2c(C(=O)O)c1C | > 851 | > 851 | –

SMILES | EC50 [µM] | IC50 [µM] | outcome
CN1CCC(c2ccccc2)(c2ccccc2)C(O)C1 (configuration not stated) | – | – | inactive
C(=Nc1ccc(-c2cc(-c3ccccc3)nc3ccc4ccccc4c23)cc1)c1ccccc1 | > 200 | 31.6 | –
O=c1ccn(C/C=N/OCCP(=O)(O)O)c(=O)[nH]1 | > 200 | > 200 | –
COc1cc(/C=C/C(=N\NS(=O)(=O)c2ccc(C)cc2)c2sc(NNC(C)=O)nc2C)ccc1O | > 46.8 | > 46.8 | –
Cc1cc2c(c(C(=O)NCC(=O)O)c1)Oc1c(cc(C)cc1C(=O)NCC(=O)O)S2 | > 200 | > 200 | –
CN(CCC#N)c1ccc(/C=C(\C#N)c2ccc(Br)cc2)cc1 | > 200 | 4.57 | –
CN(C)c1ccc(N=Nc2cccc3ccoc23)cc1 | – | – | inactive
O=C1CCC2(c3ccc(F)cc3)Nc3ncccc3N12 (configuration not stated) | > 132 | > 132 | –
CC(C)=CCc1c(O)cc(O)c2c1O[C@H](c1cc3c(cc1O)O[C@@H](c1ccc(O)cc1)C3c1cc(O)cc(O)c1)CC2=O (some centres not stated) | > 77.6 | 36.3 | –
S=c1nc(Oc2ccc(Cl)c(Cl)c2)[nH]c(=S)[nH]1 | > 23.4 | > 23.4 | –
COC(=O)/C=C/c1c(CC=C(C)C)ncn1C | > 537 | 3.47 | –
CSc1nc(C)c(Br)c(=O)n1C1OC(COC(C)=O)C(OC(C)=O)C(OC(C)=O)C1OC(C)=O (configuration not stated) | > 200 | > 200 | –
CC(C)CCCC(C)[C@H]1CC[C@H]2[C@@H]3CC[C@H]4C[C@@H](CCC=C(c5cc(Cl)c(OCC(=O)O)c(C(=O)O)c5)c5cc(Cl)c(OCC(=O)O)c(C(=O)O)c5)CC[C@]4(C)[C@H]3CC[C@]12C (some centres not stated) | 91.2 | > 100 | –
O=c1c2cncnc2sc2nc3ccccc3n12 | > 200 | > 200 | –
O=C(Sc1c(-c2ccccc2)c(=O)n(-c2ccccc2)c(=S)n1-c1ccccc1)c1ccccc1 | > 200 | 8.51 | –
CC(Nc1cccc(Cl)c1)c1ccncc1 (configuration not stated) | > 200 | 95.5 | –
Cc1cc(-c2c(Br)cc(C(=O)O)n2C)on1 | > 200 | > 200 | –
CSc1nc(-c2ccccc2)nc(C(C#N)C#N)n1 | – | – | inactive
O=c1[nH][nH]c(=O)c2nc(Nc3ccccc3)ncc12 | > 28.2 | > 28.2 | –
O=C(O)CCC1c2[nH]c3ccccc3c2CCN1Cc1ccccc1 (configuration not stated) | – | – | inactive
COP(=O)(OC)C(C)(C)NC(=O)NC(F)(F)F | > 200 | > 200 | –

SMILES | EC50 [µM] | IC50 [µM] | outcome
CCOC(=O)c1c(N)[nH]c(SSc2[nH]c(N)c(C(=O)OCC)c2C(=O)OCC)c1C(=O)OCC | > 200 | 0.417 | –
CC/C=C/C(=O)CC(O)(C(F)(F)F)C(F)(F)F | > 200 | > 200 | –
CCCCCCCCCCCCCCCCC(C(=O)O)S(=O)(=O)O (configuration not stated) | > 200 | 112 | –
O=C(O)c1ccc2c(O)c(O)ccc2c1 | > 77.6 | 6.03 | –
COC(=O)NN=C1C(C)(C)C(=O)C1(C)C | > 85.1 | > 85.1 | –
c1ccc(SCN2CCN(CSc3ccccc3)CC2)cc1 | > 30.2 | 5.75 | –
Cc1cc(S(=O)(=O)/N=C(/NN)Nc2ccc(Cl)cc2)c(S)cc1Cl | > 200 | 10 | –
CC(C)N(C(C)C)P1O[PH+](N(C(C)C)C(C)C)OP(N(C(C)C)C(C)C)O[PH+](N(C(C)C)C(C)C)O1.[C-]#[O+].[C-]#[O+].[C-]#[O+].[C-]#[O+].[W] (configuration not stated) | > 200 | > 200 | –
CC(C)/C(Cl)=N/OC(=O)Nc1ccc(Cl)c(Cl)c1 | > 20 | 3.16 | –
O=c1cc(O)c2ccccc2[nH]1 | > 200 | > 200 | –
COc1ccc([C@@]2(O)c3c(ccc(O)c3OC)[C@H]2OC)c(OC)c1 | > 15.8 | 9.33 | –
CNC(=S)SSSSC(=S)NC | – | – | inactive
Cc1[nH]c(=O)n2c(C)nnc2c1C(=O)Nc1cc(Cl)cc(Cl)c1 | – | – | inactive
C/C(=N\N=C(N)N)C(CN1CCCCC1)C(c1ccccc1)c1c(O)c2ccccc2oc1=O (configuration not stated) | > 52.5 | > 52.5 | –
O=c1[nH]c2ccsc2c(=O)n1COCc1ccccc1 | > 200 | > 200 | –
OC12c3ccccc3C1CCCCC2N1CCCC1 (configuration not stated) | > 200 | > 200 | –
O=[N+]([O-])c1ccccc1S(=O)(=O)Oc1ccc(Cl)cc1 | – | – | active
CC[C@@]1(OC(=O)CN(C)C)C(=O)OCc2c1cc1n(c2=O)Cc2cc3ccccc3nc2-1 | > 10 | 0.0229 | –
C#CCOC(=O)c1ccccc1O | > 200 | > 200 | –
CCN(CC)CCCCC1CCN(CC(=O)N2c3cc(Cl)ccc3NC(=O)CC2C)CC1 (configuration not stated) | > 251 | 66.1 | –
O=c1[nH]c(Nc2ccc(Cl)c(C(F)(F)F)c2)nc2nc[nH]c12 | > 200 | 89.1 | –
